The supplement of paper PMC11424490

Assays:
NCI-H2122 [1] = assay: combination cScore with adagrasib (Bliss gap around IC50) (%PoC); higher = stronger additive effect
Procedure, shortened: (§1)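 The score averages the gap between expected and measured viability under Bliss independence, taken over a field around the IC50 of each single agent or, where an IC50 was not reached, at the highest concentrations. Viability came from CellTiter-Glo luminescence, normalised to vehicle wells as percent of control and fitted with four-parameter curves. NCI-H2122, NCI-H358 and SW837 cells were dosed in concentration matrices 24 h after seeding and grown for 72 h, or 144 h for SW837.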

NCI-H358 [2] = assay: as above
Procedure, shortened: as §1

SW837 [3] = assay: as above
Procedure, shortened: as §1

NCI-H2122 [4] = assay: combination cScore with sotorasib (Bliss gap around IC50) (%PoC); higher = stronger additive effect
Procedure, shortened: as §1

NCI-H358 [5] = assay: as above
Procedure, shortened: as §1

SW837 [6] = assay: as above
Procedure, shortened: as §1

Q: Which “combination cScore with adagrasib” value (NCI-H2122 [1]) does the source give for `CNS(=O)(=O)Nc1nccc(Cc2c(C)c3ccc(Oc4ncccn4)cc3oc2=O)c1F` + C=C(F)C(=O)N1CCN(c2nc(OC[C@@H]3CCCN3C)nc3c2CCN(c2cccc4cccc(Cl)c24)C3)C[C@@H]1CC#N [adagrasib] here?
A: Its value is 9.73.

Q: What about the “combination cScore with adagrasib” value (NCI-H358 [2]) of the same compound?
A: The value was 3.4.

Q: And the “combination cScore with adagrasib” value (SW837 [3])?
A: Its value is 3.07.

Q: Which results are given for `COc1ncc(-c2ccc3nccc(-c4ccnnc4)c3c2)cc1NS(=O)(=O)c1ccc(F)cc1F` + C=C(F)C(=O)N1CCN(c2nc(OC[C@@H]3CCCN3C)nc3c2CCN(c2cccc4cccc(Cl)c24)C3)C[C@@H]1CC#N [adagrasib]?
A: combination cScore with adagrasib (NCI-H2122 [1]): 23.1; combination cScore with adagrasib (NCI-H358 [2]): 5.98; combination cScore with adagrasib (SW837 [3]): 4.03

Q: Which “combination cScore with adagrasib” value (NCI-H2122 [1]) does the source give for `C[C@@H]1CN(CC(=O)Nc2ccc3c(c2)Cc2cccc(-c4cc(=O)cc(N5CCOCC5)o4)c2S3)C[C@H](C)O1` + C=C(F)C(=O)N1CCN(c2nc(OC[C@@H]3CCCN3C)nc3c2CCN(c2cccc4cccc(Cl)c24)C3)C[C@@H]1CC#N [adagrasib] here?
A: Its value is 18.9.

Q: What about the “combination cScore with adagrasib” value (NCI-H358 [2]) of the same compound?
A: The value was 6.62.

Q: What about the “combination cScore with adagrasib” value (SW837 [3]) of the same compound?
A: Its value is 3.63.

Q: Which results are given for `Cc1cc(C)c(CNC(=O)c2cc(-c3ccc(N4CCNCC4)nc3)cc3c2c(C)cn3C2CCCC2)c(=O)[nH]1` + C=C(F)C(=O)N1CCN(c2nc(OC[C@@H]3CCCN3C)nc3c2CCN(c2cccc4cccc(Cl)c24)C3)C[C@@H]1CC#N [adagrasib]?
A: combination cScore with adagrasib (NCI-H2122 [1]): 20.3; combination cScore with adagrasib (NCI-H358 [2]): 5.44; combination cScore with adagrasib (SW837 [3]): -0.2

Q: What does the source list for `Cc1nc(Nc2n[nH]c3c2CN(C(=O)N[C@H](CN(C)C)c2ccccc2)C3(C)C)c2sccc2n1` + C=C(F)C(=O)N1CCN(c2nc(OC[C@@H]3CCCN3C)nc3c2CCN(c2cccc4cccc(Cl)c24)C3)C[C@@H]1CC#N [adagrasib]?
A: combination cScore with adagrasib (NCI-H2122 [1]): 8.47; combination cScore with adagrasib (NCI-H358 [2]): -5.91; combination cScore with adagrasib (SW837 [3]): -0.72

Q: How did the “combination cScore with sotorasib” value (NCI-H2122 [4]) turn out when `O=C1c2c(O)ccc(O)c2C(=O)c2c(NCCNCCO)ccc(NCCNCCO)c21` [Mitoxantrone] + C=CC(=O)N1CCN(c2nc(=O)n(-c3c(C)ccnc3C(C)C)c3nc(-c4c(O)cccc4F)c(F)cc23)[C@@H](C)C1 [sotorasib] was run?
A: Its value is 11.3.

Q: And the “combination cScore with sotorasib” value (NCI-H358 [5])?
A: The value was 1.3.

Q: What about the “combination cScore with sotorasib” value (SW837 [6]) of the same compound?
A: The value was 7.33.

Q: What does the source list for `COc1cc(N2CCC(N3CCN(C)CC3)CC2)ccc1Nc1ncc(Cl)c(Nc2ccccc2S(=O)(=O)C(C)C)n1` [NVP-TAE684] + C=CC(=O)N1CCN(c2nc(=O)n(-c3c(C)ccnc3C(C)C)c3nc(-c4c(O)cccc4F)c(F)cc23)[C@@H](C)C1 [sotorasib]?
A: combination cScore with sotorasib (NCI-H2122 [4]): 14.6; combination cScore with sotorasib (NCI-H358 [5]): 5.9; combination cScore with sotorasib (SW837 [6]): 22.3

Q: With `O=C(c1cc(Cc2n[nH]c(=O)c3ccccc23)ccc1F)N1CCN(C(=O)C2CC2)CC1` [Olaparib] + C=CC(=O)N1CCN(c2nc(=O)n(-c3c(C)ccnc3C(C)C)c3nc(-c4c(O)cccc4F)c(F)cc23)[C@@H](C)C1 [sotorasib] as the compound, how does the “combination cScore with sotorasib” value (NCI-H2122 [4]) read?
A: The value was 6.94.

Q: What about the “combination cScore with sotorasib” value (NCI-H358 [5]) of the same compound?
A: The value was 1.2.

Q: What about the “combination cScore with sotorasib” value (SW837 [6]) of the same compound?
A: Its value is 8.33.

Q: How did the “combination cScore with sotorasib” value (NCI-H2122 [4]) turn out when `C=CC(=O)Nc1cc(Nc2nccc(-c3cn(C)c4ccccc34)n2)c(OC)cc1N(C)CCN(C)C` [Osimertinib] + C=CC(=O)N1CCN(c2nc(=O)n(-c3c(C)ccnc3C(C)C)c3nc(-c4c(O)cccc4F)c(F)cc23)[C@@H](C)C1 [sotorasib] was run?
A: The value was 16.7.

Q: And the “combination cScore with sotorasib” value (NCI-H358 [5])?
A: The value was 11.6.

Q: And the “combination cScore with sotorasib” value (SW837 [6])?
A: The value was 15.9.

Q: How did the “combination cScore with sotorasib” value (NCI-H2122 [4]) turn out when `O=C(/C=C/N1C[C@H]2C[C@@H]1CN2c1ccccn1)c1ccccc1O` [PFI-3] + C=CC(=O)N1CCN(c2nc(=O)n(-c3c(C)ccnc3C(C)C)c3nc(-c4c(O)cccc4F)c(F)cc23)[C@@H](C)C1 [sotorasib] was run?
A: Its value is 15.8.

Q: And the “combination cScore with sotorasib” value (NCI-H358 [5])?
A: The value was 0.77.

Q: And the “combination cScore with sotorasib” value (SW837 [6])?
A: The value was -2.6.

Q: What does the source list for `O=C(c1c(F)ccc(NS(=O)(=O)N2CC[C@@H](F)C2)c1F)c1c[nH]c2ncc(-c3cnc(C4CC4)nc3)cc12` [PLX8394] + C=CC(=O)N1CCN(c2nc(=O)n(-c3c(C)ccnc3C(C)C)c3nc(-c4c(O)cccc4F)c(F)cc23)[C@@H](C)C1 [sotorasib]?
A: combination cScore with sotorasib (NCI-H2122 [4]): 24.2; combination cScore with sotorasib (NCI-H358 [5]): 6.09; combination cScore with sotorasib (SW837 [6]): 3.79

Q: Which “combination cScore with sotorasib” value (NCI-H2122 [4]) does the source give for `CC(=O)c1c(C)c2cnc(Nc3ccc(N4CCNCC4)cn3)nc2n(C2CCCC2)c1=O` [Palbociclib] + C=CC(=O)N1CCN(c2nc(=O)n(-c3c(C)ccnc3C(C)C)c3nc(-c4c(O)cccc4F)c(F)cc23)[C@@H](C)C1 [sotorasib] here?
A: Its value is 8.77.

Q: What about the “combination cScore with sotorasib” value (NCI-H358 [5]) of the same compound?
A: Its value is 3.92.

Q: What about the “combination cScore with sotorasib” value (SW837 [6]) of the same compound?
A: Its value is 38.3.

Q: With `Cc1ccc(C(=O)Nc2ccc(CN3CCN(C)CC3)c(C(F)(F)F)c2)cc1C#Cc1cnc2cccnn12` [Ponatinib] + C=CC(=O)N1CCN(c2nc(=O)n(-c3c(C)ccnc3C(C)C)c3nc(-c4c(O)cccc4F)c(F)cc23)[C@@H](C)C1 [sotorasib] as the compound, how does the “combination cScore with sotorasib” value (NCI-H2122 [4]) read?
A: Its value is 19.1.

Q: And the “combination cScore with sotorasib” value (NCI-H358 [5])?
A: Its value is 0.16.

Q: What about the “combination cScore with sotorasib” value (SW837 [6]) of the same compound?
A: Its value is 1.65.

Q: How did the “combination cScore with sotorasib” value (NCI-H2122 [4]) turn out when `CCc1nc(N)nc(N)c1-c1ccc(Cl)cc1` [Pyrimethamine] + C=CC(=O)N1CCN(c2nc(=O)n(-c3c(C)ccnc3C(C)C)c3nc(-c4c(O)cccc4F)c(F)cc23)[C@@H](C)C1 [sotorasib] was run?
A: Its value is 5.47.

Q: What about the “combination cScore with sotorasib” value (NCI-H358 [5]) of the same compound?
A: The value was -6.53.

Q: And the “combination cScore with sotorasib” value (SW837 [6])?
A: The value was -4.42.

Q: `CC1(N)CCN(c2cnc(-c3cccc(Cl)c3Cl)c(N)n2)CC1` [SHP099] + C=CC(=O)N1CCN(c2nc(=O)n(-c3c(C)ccnc3C(C)C)c3nc(-c4c(O)cccc4F)c(F)cc23)[C@@H](C)C1 [sotorasib] was tested. Which “combination cScore with sotorasib” value (NCI-H2122 [4]) did it give?
A: The value was 19.1.

Q: And the “combination cScore with sotorasib” value (NCI-H358 [5])?
A: Its value is 7.84.

Q: What about the “combination cScore with sotorasib” value (SW837 [6]) of the same compound?
A: Its value is 9.98.

Q: Which “combination cScore with sotorasib” value (NCI-H2122 [4]) does the source give for `CCc1c2c(nc3ccc(O)cc13)-c1cc3c(c(=O)n1C2)COC(=O)[C@]3(O)CC` [SN-38] + C=CC(=O)N1CCN(c2nc(=O)n(-c3c(C)ccnc3C(C)C)c3nc(-c4c(O)cccc4F)c(F)cc23)[C@@H](C)C1 [sotorasib] here?
A: Its value is 11.8.

Q: And the “combination cScore with sotorasib” value (NCI-H358 [5])?
A: The value was 2.64.

Q: What about the “combination cScore with sotorasib” value (SW837 [6]) of the same compound?
A: The value was 2.7.

Q: Which results are given for `C[C@@H]1OCC2(CCN(c3cnc(Sc4ccnc(N)c4Cl)c(N)n3)CC2)[C@@H]1N` [TNO155] + C=CC(=O)N1CCN(c2nc(=O)n(-c3c(C)ccnc3C(C)C)c3nc(-c4c(O)cccc4F)c(F)cc23)[C@@H](C)C1 [sotorasib]?
A: combination cScore with sotorasib (NCI-H2122 [4]): 41.9; combination cScore with sotorasib (NCI-H358 [5]): 10.6; combination cScore with sotorasib (SW837 [6]): 41.3

Q: What does the source list for `CC/C(=C(\c1ccccc1)c1ccc(OCCN(C)C)cc1)c1ccccc1` [Tamoxifen] + C=CC(=O)N1CCN(c2nc(=O)n(-c3c(C)ccnc3C(C)C)c3nc(-c4c(O)cccc4F)c(F)cc23)[C@@H](C)C1 [sotorasib]?
A: combination cScore with sotorasib (NCI-H2122 [4]): 11.1; combination cScore with sotorasib (NCI-H358 [5]): 2.01; combination cScore with sotorasib (SW837 [6]): 0.835

Q: How did the “combination cScore with sotorasib” value (NCI-H2122 [4]) turn out when `Cc1nc(-c2cn3c(n2)-c2ccc(-c4cnn(C(C)(C)C(N)=O)c4)cc2OCC3)n(C(C)C)n1` [Taselisib] + C=CC(=O)N1CCN(c2nc(=O)n(-c3c(C)ccnc3C(C)C)c3nc(-c4c(O)cccc4F)c(F)cc23)[C@@H](C)C1 [sotorasib] was run?
A: Its value is 25.3.

Q: What about the “combination cScore with sotorasib” value (NCI-H358 [5]) of the same compound?
A: Its value is 7.14.

Q: And the “combination cScore with sotorasib” value (SW837 [6])?
A: The value was 32.8.

Q: For `COc1cc2/c(=N/c3ccc(Br)cc3F)nc[nH]c2cc1OCC1CCN(C)CC1` [Vandetanib] + C=CC(=O)N1CCN(c2nc(=O)n(-c3c(C)ccnc3C(C)C)c3nc(-c4c(O)cccc4F)c(F)cc23)[C@@H](C)C1 [sotorasib], which “combination cScore with sotorasib” value (NCI-H2122 [4]) is on record?
A: Its value is 28.4.

Q: And the “combination cScore with sotorasib” value (NCI-H358 [5])?
A: The value was 7.76.

Q: And the “combination cScore with sotorasib” value (SW837 [6])?
A: The value was 22.6.

Q: Which results are given for `Oc1nc(-c2ccc(C(F)(F)F)cc2)nc2c1CSCC2` [XAV939] + C=CC(=O)N1CCN(c2nc(=O)n(-c3c(C)ccnc3C(C)C)c3nc(-c4c(O)cccc4F)c(F)cc23)[C@@H](C)C1 [sotorasib]?
A: combination cScore with sotorasib (NCI-H2122 [4]): 14.2; combination cScore with sotorasib (NCI-H358 [5]): 7.36; combination cScore with sotorasib (SW837 [6]): 7.47

Q: With `CCNC(=O)C[C@@H]1N=C(c2ccc(Cl)cc2)c2cc(OC)ccc2-n2c(C)nnc21` [iBET-762] + C=CC(=O)N1CCN(c2nc(=O)n(-c3c(C)ccnc3C(C)C)c3nc(-c4c(O)cccc4F)c(F)cc23)[C@@H](C)C1 [sotorasib] as the compound, how does the “combination cScore with sotorasib” value (NCI-H2122 [4]) read?
A: The value was 22.3.

Q: What about the “combination cScore with sotorasib” value (NCI-H358 [5]) of the same compound?
A: Its value is 5.17.

Q: What about the “combination cScore with sotorasib” value (SW837 [6]) of the same compound?
A: The value was 7.05.
